The target of the experiment is 6D8 scFv. In words: Isothermal titration calorimetry (ITC) of MSP2 and peptides into 6D8 scFv. It is filed as binding, mouse. The settings on record: ITC into 6D8 scFv; 20 mM sodium phosphate, 150 mM NaCl, pH 7.4, 25°C; scFv 20 µM, titrant from 200 µM stocks; error estimates from replicate titrations against 6D8 scFv and mAb (n = 3–5); limit of determinable affinities approx. 5 nM. An excerpt: The interaction between 6D8 and MSP2, was examined further using isothermal titration calorimetry (ITC). […] Full-length recombinant MSP2 binds 6D8 scFv with lower affinity, permitting quantification by ITC. Even though 6D8 recognizes a fully conserved epitope in MSP2, the affinities of 6D8 scFv for full-length 3D7 and FC27 MSP2 differ by as much as 5-fold (Fig. 3C,D). To explore the basis of this strain-specificity, we synthesized peptides encompassing the minimal 6D8 epitope and extending C-terminally into the variable region. […] Identical affinities were observed when 6D8 IgG was used in place of the scFv (Fig. S4).
The affinity of 6D8 IgG and scFv for synthetic peptides and recombinant MSP2 was determined by ITC (Microcal ITC-200, GE Healthcare) and SPR (Biacore T200, GE Healthcare) using a Mouse Antibody Capture kit (GE Healthcare) (SI Materials and methods). Antibody binding to lipid-tethered MSP2 was assessed SPR using an L1 chip (GE Healthcare). Vesicles of POPC containing 1 mol % DOGS-NTA were adsorbed onto the chip, and loaded with Ni^2+ and then FC27 MSP2–6His. […]
MSP2 peptides were purified on a reverse-phase C18 column (Zorbax, 10 x 300 mm) using a linear gradient of 5 to 40% of solvent B (90% acetonitrile / 9.9% water / 0.1% TFA) against solvent A (0.1% TFA in water) over 40 min. The purity of MSP2 peptides was assessed by mass spectrometry (LC-MS). […]

In paper PMC4428071, “Structural basis for epitope masking and strain specificity of a conserved epitope in an intrinsically disordered malaria vaccine candidate” (Scientific Reports, 2015) one finds Kd data, which are given here for one substance.

Consider Ac-NAYNMSIRR-NH2 [MSP2_14-22], for which the Kd is ~5 nM.

For orientation: Kd means the free concentration of one partner at which half of the binding sites on the other are occupied at equilibrium, for simple one-to-one binding.
